From US20180235936A1, “CANCER TREATMENT METHODS” (University of Notre Dame du Lac, priority 2017, published 2018)
Entries after “also recorded” stand apart in the source; their conditions may differ.

Experiments:
[1] = tested on: pancreatic cancer-associated fibroblasts (CAF1); assay: Exosome release from CAF1s treated with GW4869, exosomes dyed with CFSE and quantified; assay type: cell-based, human; conditions: CAFs; FIG. 8B / FIG. 12
Procedure: (§1) (FIG. 8A) AsPC1 cells were grown for 5 days in AsPC1-conditioned media (AsPC1/AsPC1), CAF1-conditioned media (CAF1/AsPC1) or CAF1-conditioned media depleted of exosomes (CAF1-ED/AsPC1) and then treated with 111M GEM for 3 days and live cells were counted. (FIG. 8B) CAF1s were treated with 20 gm GW4869 or DMSO along with 111M gemcitabine or PBS for 3 days. Exosomes in media were collected, dyed with CFSE, and quantified. (FIG. 8C) AsPC1 cells were co-cultured with AsPC1 cells, CAFs, GW4869-treated CAF1s, DMEM alone (Blank/AsPC1), or GW4869 in DMEM (Blank+GW4869) for 6 days then treated during co-culture with 111M gemcitabine for 3 days. Live co-cultured AsPC1 cells at the bottom of the plate were counted. (FIG. 8D) Snai1 expression was measured via RT-PCR in AsPC1 cells co-cultured with untreated CAFs (CAF-NT/AsPC1) or GW4869-treated CAFs (CAF-GW/AsPC1). (FIG. 8E) L3.6 cells were cultured in CAF1-conditioned (CAF1/L3.6) media or CAF1-conditioned media depleted of exosomes (CAF1-ED/L3.6). miR146a expression was measured via RT-PCR. **p-value<0.01.

[2] = tested on: pancreatic cancer epithelial cells; assay: Scratch migration assay of pancreatic cancer epithelial cells; assay type: cell-based, human; design: dose or concentration left out as unconfirmed; conditions: GW4869, serum-free media, three days; vs DMSO
Source text: FIG. 20 illustrates a graph of the results from pancreatic cancer epithelial cells being grown to full confluency and placed in serum-free media to prevent cell proliferation. A scratch was made down to center of the plate to create a cell free zone for migration. Cells were then given DMSO as a control or 2011M GW4869. Images were taken each day for three days and distance of cell migration was quantified using ImageJ.

[3] = tested on: pancreatic cancer epithelial cells; assay: Direct GW4869 treatment of pancreatic cancer epithelial cells followed by gemcitabine; percent live cells (trypan blue); assay type: cell-based, human; design: dose or concentration left out as unconfirmed; conditions: GW4869 for one day then gemcitabine for three days; vs DMSO
Source text: FIG. 19 illustrates a graph of the results from pancreatic cancer epithelial cells being treated with DMSO as a control or 2011M GW4869 for one day then treated with gemcitabine for three days. Live and dead cells were quantified using an automated cell counter and trypan blue staining. Percent live cells was quantified.

[4] = tested on: AsPC1 cells and CAF1 cells tumors; assay: Subcutaneous AsPC1 + CAF1 tumor growth in NOD/SCID mice; assay type: in vivo; conditions: intraperitoneally twice weekly for two weeks
Procedure: FIGS. 10A-B illustrate graphs of NOD/SCID mice that were subcutaneously implanted with one million AsPC1 cells and 200,000 CAF1 cells. Two weeks post implantation mice were treated intraperitoneally with DMSO+PBS, DMSO+gemcitabine (GEM), or PBS+GW4869 twice weekly for two weeks. (FIG. 10A) Tumor growth over the course of the ten-day post drug treatment. (FIG. 10B) Change in tumor volume from first day of drug treatment to 10 days post initial drug treatment. *p-value<0.05. NS (not significant).
Additionally, it should be appreciated that dosages can be determined as described herein. In one embodiment, the dosage of pharmaceutical composition depends on the drug itself, its efficacy, and its toxicity. As an exemplary embodiment, 2-2.5 gg GW4869 per gram mouse body weight can be intraperitoneally injected into mice twice weekly for two weeks to achieve therapeutic results.

[5] = tested on: pancreatic epithelial cancer cells (AsPC1) co-cultured with CAFs; assay: Co-culture of pancreatic epithelial cancer cells with GW4869-treated CAFs, then gemcitabine; live cell count; assay type: cell-based, human; conditions: GW4869-treated CAFs (20 μM), gemcitabine for three days during co-culture
Procedure: as §1
The bottom co-cultured epithelial cells were then treated with gemcitabine for three days during co-culture. Live co-cultured epithelial cells at the bottom of the plate were quantified using an automated cell counter. *p-value<0.05; **p-value <0.01. NS (not significant).

[6] = tested on: Snai1 mRNA; assay: Snai1 expression by RT-PCR in AsPC1 cells co-cultured with GW4869-treated CAFs; assay type: cell-based, human; conditions: exosome secretion from PCAFs inhibited by GW4869
Procedure: as §1

[7] = tested on: microRNA-92a; assay: microRNA-92a expression by RT-PCR in AsPC1 cells co-cultured with GW4869-treated CAFs; assay type: cell-based, human; conditions: PCAFs treated with GW4869 vs DMSO
Source text: FIG. 17A illustrates a graph of the results from pancreatic cancer epithelial cells (AsPC1) grown in PCAF-conditioned media; the cells expressed higher levels of microRNA-92a compared to control media, as established via RTPCR.

[8] = tested on: PTEN; assay: PTEN expression by RT-PCR in tumors extracted from treated NOD/SCID mice; assay type: in vivo; conditions: intraperitoneally twice weekly for two weeks; compared to control
Procedure: FIG. 16 illustrates a graph of the results from NOD/SCID mice being subcutaneously implanted with one million AsPC1 cells and 200,000 CAF1 cells. Two weeks post implantation mice were treated intraperitoneally with DMSO+PBS, DMSO+gemcitabine, PBS+GW4869, or gemcitabine+GW4869 twice weekly for two weeks. Tumors were extracted for RNA and PTEN expression within tumor samples was quantified via RT-PCR.

[9] = tested on: pancreatic ductal adenocarcinoma (PDAC); conditions: adjuvant gemcitabine, observed cohort; cited from earlier work
[10] = tested on: Snai1 and miR-146a; assay: RT-PCR of Snai1 and miR-146a in CAF1s and CAF1 exosomes during gemcitabine treatment; assay type: cell-based, human
Procedure: (FIG. 11A) RT-PCR. miR-146a and Snai1 levels were altered in CAF1s during 1 μM GEM treatment (GT) (3 days) compared to untreated control (NT). (FIG. 11B) RT-PCR. CAF1s were treated with Snai1-siRNA, and Snai1 and miR-146a expression was measured compared to negative siRNA control treated CAFs. (FIG. 11C) Exosomes from untreated and 1 μM GEM-treated CAF1s were isolated and Snai1 mRNA and miR-146a within CAF1 exosomes was quantified via RT-PCR using relative Ct values. (FIG. 11D-E) L3.6 cells were treated with GT-CAF1 exosomes for 6 days (GTCAF1/L3.6) or left untreated (L3.6 control). AsPC1 cells were treated with GT-CAF1 exosomes for 6 days (GT-CAF1/AsPC1) or left untreated (AsPC1 control). Snai1 (FIG. 11D) and miR-146a (FIG. 11E) levels were quantified in recipient cells via RT-PCR. *p-value<0.05; **p-value<0.01.

[11] = tested on: pancreatic cancer-associated fibroblasts (CAF1); assay: Exosome secretion from cells during chemotherapy treatment, exosomes isolated from conditioned media and quantified; assay type: cell-based, human; conditions: most prominently from PCAFs; 4 days treatment; vs untreated
Procedure: (FIG. 4A) CAF1s were left untreated (NT) or treated with 111M gem (GT) for 4 days. Exosomes were isolated from conditioned cell media, and protein lysates were used to perform a western blot for CD81 and beta-actin (left). Isolated exosomes were examined for size and structure via transmission electron microscopy (right). (FIG. 4B) CAF1 cells transduced with a GFP-CD63 lentivirus (GFP-CD63-CAF1s) were treated with luM gemcitabine (GT) or left untreated (NT) and fluorescence was analyzed via microscopy. (FIG. 4C) Total corrected cell fluorescence of GFP-CD63-CAF1 cells was quantified using ImageJ. (FIG. 4D) Cells were treated with 11.1M gemcitabine (Fibroblasts and PANC1), 10 nM gemcitabine (L3.6), or left untreated for 4 days (NT), and exosomes were collected and quantified. Scale bar, 200 Em. *pvalue<0.05; **p-value<0.01.
FIG. 5 illustrates a graph of fold change in exosome secretion per cell. CAF1 cells were plated at 500,000 cells/flask and left untreated (control), treated with 111M gemcitabine, or 10 nM Nab-Paclitaxel for 4 days. Live cells were counted. Exosomes were isolated from conditioned-media and quantified. *p-value<0.05;**p-value<0.01.

[12] = tested on: PCAF extracellular vesicle microRNAs; assay: MicroRNA-Seq of extracellular vesicles from gemcitabine-treated versus PBS-treated PCAFs; assay type: cell-based, human; conditions: normalized to total RNA
Source text: While Snai1 and miR-146a may play an important role in promoting chemoresistance of PECCs, other potential mechanisms exist in which PCAF exosomes may increase chemoresistance. For example, by treating PCAFs with PBS as a control or gemcitabine, collecting their secreted extracellular vesicles, lysing them, collecting the microRNA within, and quantifying the microRNAs, the role of microRNAs is made clearer. […] [table]

[13] = 1 μM GEM treatment (3 days) vs untreated

Structure (SMILES) | exosome release [1] | cell migration of PECCs [2] | chemoresistance of PECCs treated directly [3] | tumor growth [4] | chemoresistance of co-cultured PECCs [5] | cellular level of Snai1 mRNA within co-cultured PECCs [6] | expression of miR-92a within co-cultured PECCs [7] | PTEN expression within the tumors [8] | patients eventually showing tumor recurrence [9] [%] | Snai1 level in CAFs [10, 13] | miR-146a level in CAFs [10, 13] | level of Snai1 mRNA in exosomes secreted from PCAFs ([10]; 1 μM GEM-treated vs untreated) | level of miR-146a in exosomes secreted from PCAFs ([10]; 1 μM GEM-treated vs untreated) | secretion of exosomes from cells [11] | Fold Change (GEM vs. NT) of hsa-m1R-221-3p in extracellular vesicles [12] | Fold Change (GEM vs. NT) of hsa-miR-21-5p in extracellular vesicles [12] | Fold Change (GEM vs. NT) of hsa-miR-92a-3p in extracellular vesicles [12] | Fold Change (GEM vs. NT) of hsa-miR-181a-5p in extracellular vesicles [12] | Fold Change (GEM vs. NT) of hsa-miR-222-3p in extracellular vesicles [12]
O=C(/C=C/c1ccc(/C=C/C(=O)Nc2ccc(C3=NCCN3)cc2)cc1)Nc1ccc(C2=NCCN2)cc1 [GW4869] | suppresses exosome release | reduced cell migration | reduced chemoresistance | reduced tumor growth | reduced the chemoresistance | decreased | reduced expression; also recorded: decreased | – | – | – | – | – | – | – | – | – | – | – | –
Nc1ccn([C@@H]2O[C@H](CO)[C@@H](O)C2(F)F)c(=O)n1 [gemcitabine] | – | – | – | – | – | – | – | decreased | 74 | upregulation | upregulation | higher | higher | increases secretion of exosomes | 4.325 | 2.531 | 4.66 | 3.509 | 2.649
